Publication PMC8662559, “The Effects of a Novel Non-catechol Dopamine Partial Agonist on Working Memory in the Aged Rhesus Monkey” (Frontiers in Aging Neuroscience, 2021)

Tests used:
human D1 receptor [1] = molecular target: T1, human D1 receptor (Homo sapiens, UniProt P21728); experiment: cAMP functional assay (method of Gray et al., […]); assay type: cell-based; conditions: partial agonist
T1 construct: gene DRD1; human D1

human D1 receptor [2] = molecular target: T1, human D1 receptor; experiment: binding assay (method of Gray et al., […]); assay type: cell-based
[3] = molecular target: T2, non-human primate D1 receptor (Macaca fascicularis, UniProt G7P6Y1); experiment: radioligand competition binding; assay type: biochemical; conditions: 1.0 nM [3H]-SCH23390, striatal membranes, 4 mM MgSO4, 0.5 mM EDTA, pH 7.4, 37 °C; Cheng-Prusoff
T2 construct: native receptor in striatal membrane homogenate
T2 sequence (G7P6Y1 1-446): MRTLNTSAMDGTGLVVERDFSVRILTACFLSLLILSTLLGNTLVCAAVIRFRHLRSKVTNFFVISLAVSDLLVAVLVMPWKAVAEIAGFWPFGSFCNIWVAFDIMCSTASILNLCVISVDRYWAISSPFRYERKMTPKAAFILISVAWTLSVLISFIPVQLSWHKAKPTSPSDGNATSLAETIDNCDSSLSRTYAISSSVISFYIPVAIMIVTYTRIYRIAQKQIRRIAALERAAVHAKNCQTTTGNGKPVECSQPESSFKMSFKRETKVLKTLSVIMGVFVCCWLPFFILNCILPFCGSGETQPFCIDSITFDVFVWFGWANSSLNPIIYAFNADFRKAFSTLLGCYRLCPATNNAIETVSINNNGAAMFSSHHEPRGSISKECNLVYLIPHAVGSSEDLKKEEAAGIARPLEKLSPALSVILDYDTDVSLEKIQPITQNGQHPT

T1 sequence (P21728 whole entry): as the sequence (G7P6Y1 1-446) above, with I311N counted along it

PF-6294
EC50 (human D1 receptor [1]): 0.036 µM | Ki (human D1 receptor [2]): 0.017 µM | Ki [3]: 0.014 µM
